How the values were obtained:
Assay in all cases: relative viability (nuclei count vs DMSO), 5 days (fraction); higher = more cells survive
[1] = test system: NCI-H2405
Summary of the method: (§1)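 Five library-drug doses in √10 steps were combined with a fixed anchor-drug dose, or a single drug was given alone, by pin tool to lung cancer cell lines in 1536-well plates the day after seeding. Nuclei were stained and counted after 5 days. Relative viability is the nuclei count in treated wells over that in vehicle wells, taken as the median of duplicate plates.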

[2] = test system: SW 900
Summary of the method: as §1

[3] = test system: A-427
Summary of the method: as §1

[4] = test system: NCI-H1437
Summary of the method: as §1

[5] = test system: NCI-H322M
Summary of the method: as §1

[6] = test system: RERF-LC-KJ
Summary of the method: as §1

[7] = test system: SK-LU-1
Summary of the method: as §1

[8] = test system: NCI-H23
Summary of the method: as §1

[9] = test system: H3255
Summary of the method: as §1

[10] = test system: NCI-H647
Summary of the method: as §1

[11] = test system: NCI-H2085
Summary of the method: as §1

[12] = test system: NCI-H3122
Summary of the method: as §1

[13] = test system: NCI-H2347
Summary of the method: as §1

## Nc1cccc2c1CN(C1CCC(=O)NC1=O)C2=O (stereo not given) [Lenalidomide] + COc1cccc2cc(-c3nc([C@H]4CC[C@H](C(=O)O)CC4)n4ncnc(N)c34)[nH]c12 [OSI-027] (partner 0.5 µM)
[1]; first compound 0.8 µM
  relative viability: 0.706
[1]; first compound 2.53 µM
  relative viability: 0.588
[1]; first compound 8 µM
  relative viability: 0.596
[2]; first compound 0.253 µM
  relative viability: 0.559
[2]; first compound 2.53 µM
  relative viability: 0.742
[2]; first compound 8 µM
  relative viability: 0.532
[3]; first compound 0.253 µM
  relative viability: 0.48
[3]; first compound 0.8 µM
  relative viability: 0.387
[3]; first compound 2.53 µM
  relative viability: 0.473
[3]; first compound 8 µM
  relative viability: 0.514
[4]; first compound 0.253 µM
  relative viability: 0.888
[4]; first compound 0.8 µM
  relative viability: 1.11
[4]; first compound 2.53 µM
  relative viability: 0.993
[4]; first compound 8 µM
  relative viability: 0.956
[5]; first compound 0.253 µM
  relative viability: 0.53
[5]; first compound 0.8 µM
  relative viability: 0.527
[5]; first compound 2.53 µM
  relative viability: 0.609
[5]; first compound 8 µM
  relative viability: 0.558
[6]; first compound 0.253 µM
  relative viability: 0.57
[6]; first compound 0.8 µM
  relative viability: 0.615
[6]; first compound 2.53 µM
  relative viability: 0.643
[6]; first compound 8 µM
  relative viability: 0.644
[7]; first compound 0.253 µM
  relative viability: 0.313
[7]; first compound 0.8 µM
  relative viability: 0.361
[7]; first compound 2.53 µM
  relative viability: 0.36
[7]; first compound 8 µM
  relative viability: 0.421
[8]; first compound 0.253 µM
  relative viability: 0.581
[8]; first compound 0.8 µM
  relative viability: 0.499
[8]; first compound 2.53 µM
  relative viability: 0.742
[8]; first compound 8 µM
  relative viability: 0.502
[9]; first compound 0.253 µM
  relative viability: 0.633
[9]; first compound 0.8 µM
  relative viability: 0.65
[9]; first compound 2.53 µM
  relative viability: 0.55
[9]; first compound 8 µM
  relative viability: 0.516
[10]; first compound 0.253 µM
  relative viability: 0.587
[10]; first compound 0.8 µM
  relative viability: 0.551
[10]; first compound 2.53 µM
  relative viability: 1.02
[10]; first compound 8 µM
  relative viability: 0.744
[11]; first compound 0.253 µM
  relative viability: 0.818
[11]; first compound 0.8 µM
  relative viability: 0.518
[11]; first compound 2.53 µM
  relative viability: 0.879
[11]; first compound 8 µM
  relative viability: 0.784
[12]; first compound 0.253 µM
  relative viability: 0.97
[12]; first compound 0.8 µM
  relative viability: 1.21
[12]; first compound 2.53 µM
  relative viability: 0.914
[12]; first compound 8 µM
  relative viability: 0.898
[13]; first compound 0.253 µM
  relative viability: 0.44
[13]; first compound 0.8 µM
  relative viability: 0.47
[13]; first compound 2.53 µM
  relative viability: 0.378
[13]; first compound 8 µM
  relative viability: 0.454
